Reference: the RepoRT retention time repository (doi:10.1016/j.scitotenv.2015.08.078)

assay: RP, Waters ACQUITY UPLC BEH C18, 100 × 2.1 mm, 1.7 µm, 0.3 mL/min, estimated dead time 0.73 min; A: water + 0.1% formic acid, pH 3; B: methanol + 0.1% formic acid, pH 3; gradient (min/%B) 0/10 14/90 16/90 18/10; conditions: stereoisomer not certain

SMILES	LC retention time [min]
NS(=O)(=O)c1cc(C(=O)O)c(NCc2ccco2)cc1Cl [Furosemide]	6.6
Cn1c([N+](=O)[O-])cnc1CO [HMMNI (Hydroxy Dimetridazole)]	2.23
CC(=O)OCC12CC(OC(=O)CC(C)C)C(C)=CC1OC1C(O)C(O)C2(C)C12CO2 (centres undefined) [HT-2 Toxin]	7.95
CC(C)(C)N(NC(=O)c1ccc(Cl)cc1)C(=O)c1ccccc1 [Halofenozide]	9.91
COC(=O)c1c(Cl)nn(C)c1S(=O)(=O)NC(=O)Nc1nc(OC)cc(OC)n1 [Halosulfuron methyl]	7.16
CCOCCOC(=O)C(C)Oc1ccc(Oc2ncc(C(F)(F)F)cc2Cl)cc1 (centres undefined) [Haloxyfop-2-ethoxyethyl]	13.1
COC(=O)C(C)Oc1ccc(Oc2ncc(C(F)(F)F)cc2Cl)cc1 (centres undefined) [Haloxyfop-methyl]	12.6
CC(Oc1ccc(Oc2ncc(C(F)(F)F)cc2Cl)cc1)C(=O)O (centres undefined) [Haloxyfop]	11.8
COP(=O)(OC)OC1=C(Cl)C2C=CCC12 (centres undefined) [Heptenophos]	9.33
CC(=O)Oc1ccc2c3c1OC1C(OC(C)=O)C=CC4C(C2)N(C)CCC341 (centres undefined) [Heroin]	5.32
CCCCC(O)(Cn1cncn1)c1ccc(Cl)cc1Cl (centres undefined) [Hexaconazole]	12
O=C(NC(=O)c1c(F)cccc1F)Nc1cc(Cl)c(OC(F)(F)C(F)F)c(Cl)c1 [Hexaflumuron]	12.6
CN(C)c1nc(=O)n(C2CCCCC2)c(=O)n1C [Hexazinone]	7.56
CCC(c1ccc(O)cc1)C(CC)c1ccc(O)cc1 (centres undefined) [Hexestrol]	11.3
CC1C(c2ccc(Cl)cc2)SC(=O)N1C(=O)NC1CCCCC1 (centres undefined) [Hexythiazox]	14.2
CC1(C)CN=C(NN=C(C=Cc2ccc(C(F)(F)F)cc2)C=Cc2ccc(C(F)(F)F)cc2)NC1 [Hydramethylnon]	12.8
CC12CCC(=O)C=C1CCC1C2C(O)CC2(C)C1CCC2(O)C(=O)CO (centres undefined) [Hydrocortisone]	8.53

SMILES	LC retention time [min]
Cn1c([N+](=O)[O-])cnc1C(C)(C)O [Hydroxyipronidazole (IPZOH)]	4.6
CC(C)(CO)NCC(O)c1cc(Cl)c(N)c(Cl)c1 (centres undefined) [Hydroxymethyl clenbuterol]	4.17
O=[N+]([O-])c1cnc(CO)n1CCO [Hydroxymetronidazole (MNZOH)]	1.9
CC(C)Cc1ccc(C(C)C(=O)O)cc1 (centres undefined) [Ibuprofen]	12.4
C=CCOC(Cn1ccnc1)c1ccc(Cl)cc1Cl (centres undefined) [Imazalil]	9.14
COCc1cnc(C2=NC(C)(C(C)C)C(=O)N2)c(C(=O)O)c1 (centres undefined) [Imazamox]	3.21
CC(C)C1(C)N=C(c2nc3ccccc3cc2C(=O)O)NC1=O (centres undefined) [Imazaquin]	5.22
Clc1ccc(CSC(Cn2cncn2)=Nc2ccc(Cl)cc2Cl)cc1 [Imibenconazole]	13
O=[N+]([O-])/N=C1\NCCN1Cc1ccc(Cl)nc1 [Imidacloprid]	4.63
CC(C)OP(=O)(OC(C)C)SCc1ccccc1 [Iprobenfos]	11.5
CC(C)NC(=O)N1CC(=O)N(c2cc(Cl)cc(Cl)c2)C1=O [Iprodione]	11.9
CC(C)c1ncc([N+](=O)[O-])n1C [Ipronidazole (IPZ)]	5.42
CCCCC1=NC2(CCCC2)C(=O)N1Cc1ccc(-c2ccccc2-c2nn[nH]n2)cc1 [Irbesartan]	10.4
CCOP(=S)(OCC)Oc1nc(Cl)n(C(C)C)n1 [Isazophos]	10.8
CCOP(=S)(NC(C)C)Oc1ccccc1C(=O)OC(C)C (centres undefined) [Isofenphos]	12.1
CC(C)OC(=O)C(C(=O)OC(C)C)=C1SCCS1 [Isoprothiolane]	10.4
CC(C)c1ccc(NC(=O)N(C)C)cc1 [Isoproturon]	9.6
